# Measured values reported in US20140018316A1, “OPHTHALMIC PHARMACEUTICAL COMPOSITION” (Hayashibara Co., Ltd., priority 2005, published 2014).
# Test system: pig lens
# Test: Swelling and cloudiness of extracted pig lenses soaked in test or control solutions (traumatic cataract model)
# Set-up: key to degree of cloudiness in the lens (relative value): relative gray-scale density; uninjured lens in saline at start = 10
# Procedure: Using an injured pig lens employed as a model for traumatic cataract, the influence of cyclic tetrasaccharide on the cloudiness in the lens was experimented as follows: A test solution was previously prepared by dissolving a cyclic tetrasaccharide crystal, penta hydrate, which had been prepared by the method in the later described Reference for Example 2, in physiological saline into a physiological saline containing 100 mM cyclic tetrasaccharide. As a positive control, a physiological saline containing 100 mM α,α-trehalose, a reagent grade specimen, commercialized by Hayashibara Biochemical Laboratories, Inc., Okayama, Japan, was used; andasanegativecontrol, physiological saline was used. Two milliliter aliquots of any one of the above three kinds of aqueous solutions were added to every two wells in respective commercialized 24-well culture plates. In one of the two wells containing the same kind of solution in each plate was placed a pig lens, which had been obtained from a slaughter-house, extracted by incision within three hours after the obtention and without injuring, and washing the extracted lens with physiological saline; while in the other of the two wells was placed a pig lens, which had been prepared by the same procedure as in the above but injured with a 27-gauge injection needle (commercialized by Terumo Co., Tokyo, Japan) to form an injured line, about one millimeter in length. These lens were allowed to stand at ambient temperature and macroscopically and microscopically observed their change in the degree of cloudiness and in the shape of swelling, etc. This experiment was run in a triplicate manner, and the macroscopic and microscopic observations were done just after (0), 1 hour, 2 hours, 6 hours, and 24 hours after the lenses were placed in the wells, and then observed daily over 28 days. A similar experiment was further conducted using a physiological saline containing 75 mM, 50 mM, 20 mM, 10 mM, or 1 mM cyclic tetrasaccharide and a lens that had not been injured with the injection needle. The degree of cloudiness in each lens, observed with “STEREOMICROSCOPE SZX12”, a product name of a stereomicroscope commercialized by Olympus Co., Tokyo, Japan, was expressed by photographing a transmitted light image of each lens with “PENGUIN 150CL”, a digital camera commercialized by Pixela Co., Tokyo, Japan, capturing the transmitted image by a computer using a view finder commercialized by Olympus Co., Tokyo, Japan, and expressing numerically the degree of light and shade of the captured image as a gray-scale using “Scion Image for Windows Beta 4.0.2”, a software commercialized by Scion Co., Maryland, U.S.A., to obtain a mean density for each lens. The time course change in the degree of cloudiness in each lens placed in each solution was expressed with a relative value, regarding the degree of cloudiness, just after the lens free of injury had been placed in physiological saline, as 10. The change of cloudiness and swelling are respectively in Tables 1 and 2. In Table 1, there show only the results from time 0 hour through two days and from days 7, 14 and 28.
# [1] = 1 mM in physiological saline, no injury, 28 days
# [2] = 10 mM in physiological saline, no injury, 28 days
# [3] = 20 mM in physiological saline, no injury, 28 days
# [4] = pig lens in physiological saline
smiles,measurement,setting,value
"OCC1OC2OCC3O[C@H](O[C@H]4C(O)C(CO)OC(OCC5O[C@H](O[C@@H](C1O)C2O)C(O)C(O)[C@@H]5O)C4O)C(O)C(O)[C@@H]3O (stereo partly drawn) [Test solution, cyclo{→6)-α-D-glucopyranosyl-(1→3)-α-D-glucopyranosyl-(1→6)-α-D-glucopyranosyl-(1→3)-α-D-glucopyranosyl-(1→}]",degree of cloudiness in the lens (relative value),"1 mM in physiological saline, no injury, 1 hour",11
same,degree of cloudiness in the lens (relative value),"1 mM in physiological saline, no injury, 2 hours",12
same,degree of cloudiness in the lens (relative value),"1 mM in physiological saline, no injury, 6 hours",11
same,degree of cloudiness in the lens (relative value),"1 mM in physiological saline, no injury, 24 hours",12
same,degree of cloudiness in the lens (relative value),"1 mM in physiological saline, no injury, 2 days",14
same,degree of cloudiness in the lens (relative value),"1 mM in physiological saline, no injury, 7 days",55
same,degree of cloudiness in the lens (relative value),"1 mM in physiological saline, no injury, 14 days",61
same,degree of cloudiness in the lens (relative value),[1],85
same,swelling of the lens,[1],◯ (swelling was observed)
same,degree of cloudiness in the lens (relative value),"1 mM in physiological saline, no injury, time 0",10
same,degree of cloudiness in the lens (relative value),"10 mM in physiological saline, no injury, 1 hour",12
same,degree of cloudiness in the lens (relative value),"10 mM in physiological saline, no injury, 2 hours",11
same,degree of cloudiness in the lens (relative value),"10 mM in physiological saline, no injury, 6 hours",12
same,degree of cloudiness in the lens (relative value),"10 mM in physiological saline, no injury, 24 hours",11
same,degree of cloudiness in the lens (relative value),"10 mM in physiological saline, no injury, 2 days",13
same,degree of cloudiness in the lens (relative value),"10 mM in physiological saline, no injury, 7 days",49
same,degree of cloudiness in the lens (relative value),"10 mM in physiological saline, no injury, 14 days",59
same,degree of cloudiness in the lens (relative value),[2],87
same,swelling of the lens,[2],◯ (swelling was observed)
same,degree of cloudiness in the lens (relative value),"10 mM in physiological saline, no injury, time 0",10
same,degree of cloudiness in the lens (relative value),"20 mM in physiological saline, no injury, 1 hour",11
same,degree of cloudiness in the lens (relative value),"20 mM in physiological saline, no injury, 2 hours",12
same,degree of cloudiness in the lens (relative value),"20 mM in physiological saline, no injury, 6 hours",12
same,degree of cloudiness in the lens (relative value),"20 mM in physiological saline, no injury, 24 hours",12
same,degree of cloudiness in the lens (relative value),"20 mM in physiological saline, no injury, 2 days",14
same,degree of cloudiness in the lens (relative value),"20 mM in physiological saline, no injury, 7 days",51
same,degree of cloudiness in the lens (relative value),"20 mM in physiological saline, no injury, 14 days",60
same,degree of cloudiness in the lens (relative value),[3],71
same,swelling of the lens,[3],◯ (swelling was observed)
same,degree of cloudiness in the lens (relative value),"20 mM in physiological saline, no injury, time 0",10
same,cloudiness in the lens (in words),"20 mM, 10 mM or 1 mM, lenses with no injury, from seven days",cloudiness was observed throughout the lenses
same,swelling of the lens (in words),"20 mM, 10 mM or 1 mM, lenses with no injury, until 14 days",No swelling of the lenses was observed
same,degree of cloudiness in the lens (relative value),"50 mM in physiological saline, no injury, 1 hour",11
same,degree of cloudiness in the lens (relative value),"50 mM in physiological saline, no injury, 2 hours",12
same,degree of cloudiness in the lens (relative value),"50 mM in physiological saline, no injury, 6 hours",12
same,degree of cloudiness in the lens (relative value),"50 mM in physiological saline, no injury, 24 hours",12
same,degree of cloudiness in the lens (relative value),"50 mM in physiological saline, no injury, 2 days",13
same,degree of cloudiness in the lens (relative value),"50 mM in physiological saline, no injury, 7 days",15
same,degree of cloudiness in the lens (relative value),"50 mM in physiological saline, no injury, 14 days",20
same,degree of cloudiness in the lens (relative value),"50 mM in physiological saline, no injury, 28 days",28
same,degree of cloudiness in the lens (relative value),"50 mM in physiological saline, no injury, time 0",10
same,degree of cloudiness in the lens (relative value),"75 mM in physiological saline, no injury, 1 hour",11
same,degree of cloudiness in the lens (relative value),"75 mM in physiological saline, no injury, 2 hours",12
same,degree of cloudiness in the lens (relative value),"75 mM in physiological saline, no injury, 6 hours",12
same,degree of cloudiness in the lens (relative value),"75 mM in physiological saline, no injury, 24 hours",12
same,degree of cloudiness in the lens (relative value),"75 mM in physiological saline, no injury, 2 days",12
same,degree of cloudiness in the lens (relative value),"75 mM in physiological saline, no injury, 7 days",14
same,degree of cloudiness in the lens (relative value),"75 mM in physiological saline, no injury, 14 days",21
same,degree of cloudiness in the lens (relative value),"75 mM in physiological saline, no injury, 28 days",29
same,degree of cloudiness in the lens (relative value),"75 mM in physiological saline, no injury, time 0",10
same,swelling of the lens (in words),"75 mM or 50 mM, lenses with no injury, until 28 days",No swelling was observed
same,degree of cloudiness in the lens (relative value),"100 mM in physiological saline, injured lens, 1 hour",10
same,degree of cloudiness in the lens (relative value),"100 mM in physiological saline, injured lens, 2 hours",10
same,degree of cloudiness in the lens (relative value),"100 mM in physiological saline, injured lens, 6 hours",12
same,degree of cloudiness in the lens (relative value),"100 mM in physiological saline, injured lens, 24 hours",12
same,degree of cloudiness in the lens (relative value),"100 mM in physiological saline, injured lens, 2 days",12
same,degree of cloudiness in the lens (relative value),"100 mM in physiological saline, injured lens, time 0",10
same,degree of cloudiness in the lens (relative value),"100 mM in physiological saline, no injury, 1 hour",13
same,degree of cloudiness in the lens (relative value),"100 mM in physiological saline, no injury, 2 hours",12
same,degree of cloudiness in the lens (relative value),"100 mM in physiological saline, no injury, 6 hours",12
same,degree of cloudiness in the lens (relative value),"100 mM in physiological saline, no injury, 24 hours",12
same,degree of cloudiness in the lens (relative value),"100 mM in physiological saline, no injury, 2 days",11
same,degree of cloudiness in the lens (relative value),"100 mM in physiological saline, no injury, 7 days",12
same,degree of cloudiness in the lens (relative value),"100 mM in physiological saline, no injury, 14 days",15
same,degree of cloudiness in the lens (relative value),"100 mM in physiological saline, no injury, 28 days",15
same,degree of cloudiness in the lens (relative value),"100 mM in physiological saline, no injury, time 0",10
same,swelling of the lens (in words),"100 mM, injured lens, 2 days after initiating observation",the swelling of the lens was not observed
same,cloudiness in the lens (in words),"100 mM, injured lens, after 2 days",partial cloudiness only at the injured site
same,swelling of the lens (in words),"100 mM, lenses with no injury, on 28 days",no swelling
same,concentration with a satisfactory swelling-inhibitory-effect on the lens,[4],≥ 1 mM
same,concentration with an action of inhibiting the swelling and cloudiness in the lens and maintaining transparency,[4],≥ 50 mM
